# Laboratory results: ChEMBL document CHEMBL1201862, “PubChem BioAssay data set” (2004)
# Calls of active or inactive are those of the source.
# Assays:
# [1] = target: T1, Replicative DNA helicase DnaB (Mycobacterium tuberculosis, UniProt P9WMR3); experiment: DnaB intein splicing inhibitors, dose response, biochemical, cell-free fluorescence (AID 449749); format: functional
# T1 sequence (P9WMR3 whole entry): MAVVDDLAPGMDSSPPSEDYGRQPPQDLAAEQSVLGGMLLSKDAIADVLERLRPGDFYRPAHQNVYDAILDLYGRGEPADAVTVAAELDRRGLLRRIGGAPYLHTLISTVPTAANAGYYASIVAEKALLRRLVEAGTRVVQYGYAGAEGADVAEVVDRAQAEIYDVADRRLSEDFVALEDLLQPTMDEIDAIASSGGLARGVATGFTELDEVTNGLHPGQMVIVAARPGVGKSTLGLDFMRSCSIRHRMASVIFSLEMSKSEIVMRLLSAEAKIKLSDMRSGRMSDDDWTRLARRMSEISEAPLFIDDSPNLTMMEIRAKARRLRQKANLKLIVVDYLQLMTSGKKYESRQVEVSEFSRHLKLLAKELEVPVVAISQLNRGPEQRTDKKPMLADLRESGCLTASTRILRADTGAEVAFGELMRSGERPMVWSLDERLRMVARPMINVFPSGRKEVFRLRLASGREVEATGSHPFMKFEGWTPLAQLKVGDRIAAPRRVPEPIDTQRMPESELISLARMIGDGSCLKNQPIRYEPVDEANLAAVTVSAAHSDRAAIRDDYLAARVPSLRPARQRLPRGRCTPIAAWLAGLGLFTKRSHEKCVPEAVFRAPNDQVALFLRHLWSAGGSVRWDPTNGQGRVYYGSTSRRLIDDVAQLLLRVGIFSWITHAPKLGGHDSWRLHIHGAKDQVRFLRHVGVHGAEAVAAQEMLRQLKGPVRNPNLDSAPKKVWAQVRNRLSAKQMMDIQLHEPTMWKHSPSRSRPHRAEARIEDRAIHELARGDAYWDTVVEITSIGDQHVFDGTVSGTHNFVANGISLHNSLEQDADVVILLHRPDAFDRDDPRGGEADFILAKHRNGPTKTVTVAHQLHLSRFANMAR
# Protein RecA = target: T2, Protein RecA (Mycobacterium tuberculosis, UniProt P9WHJ3); experiment: Fluorescence Cell-Free Homogeneous Dose Retest to Identify Inhibitors of RecA-Intein Splicing Activity. [Related pubchem assays (depositor defined):AID2097, AID2223, AID489010, AID492950]; format: functional
# T2 sequence (P9WHJ3 whole entry): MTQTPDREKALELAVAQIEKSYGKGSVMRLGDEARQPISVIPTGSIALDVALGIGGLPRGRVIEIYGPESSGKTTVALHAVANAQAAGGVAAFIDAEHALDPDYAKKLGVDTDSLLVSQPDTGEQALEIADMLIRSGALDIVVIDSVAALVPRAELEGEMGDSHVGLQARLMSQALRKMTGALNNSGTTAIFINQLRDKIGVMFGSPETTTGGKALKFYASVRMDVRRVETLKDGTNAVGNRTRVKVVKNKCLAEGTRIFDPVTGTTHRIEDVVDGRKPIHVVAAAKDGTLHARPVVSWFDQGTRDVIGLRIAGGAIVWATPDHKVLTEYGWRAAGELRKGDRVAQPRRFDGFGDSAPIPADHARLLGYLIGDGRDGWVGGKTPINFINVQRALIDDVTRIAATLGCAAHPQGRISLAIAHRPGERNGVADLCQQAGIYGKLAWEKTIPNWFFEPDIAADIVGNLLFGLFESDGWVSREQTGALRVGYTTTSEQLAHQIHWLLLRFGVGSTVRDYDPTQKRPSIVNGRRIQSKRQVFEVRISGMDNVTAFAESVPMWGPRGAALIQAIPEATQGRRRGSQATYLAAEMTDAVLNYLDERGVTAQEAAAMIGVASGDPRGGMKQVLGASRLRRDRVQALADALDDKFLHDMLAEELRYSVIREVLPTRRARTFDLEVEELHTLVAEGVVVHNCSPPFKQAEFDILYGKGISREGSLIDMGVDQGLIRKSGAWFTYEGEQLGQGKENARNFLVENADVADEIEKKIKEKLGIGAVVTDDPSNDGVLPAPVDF
# Fatty acid synthase [2] = target: T3, Fatty acid synthase (Homo sapiens, UniProt P49327); experiment: inhibition of human FAS-TE enzyme activity – biochemical, endpoint fluorescence intensity, uHTS hits, dose response (AID 624327); format: functional;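 also: fluorescence from hydrolysis of an O-methyl fluorescein acyl ester substrate by the enzyme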
# T3 sequence (P49327 whole entry): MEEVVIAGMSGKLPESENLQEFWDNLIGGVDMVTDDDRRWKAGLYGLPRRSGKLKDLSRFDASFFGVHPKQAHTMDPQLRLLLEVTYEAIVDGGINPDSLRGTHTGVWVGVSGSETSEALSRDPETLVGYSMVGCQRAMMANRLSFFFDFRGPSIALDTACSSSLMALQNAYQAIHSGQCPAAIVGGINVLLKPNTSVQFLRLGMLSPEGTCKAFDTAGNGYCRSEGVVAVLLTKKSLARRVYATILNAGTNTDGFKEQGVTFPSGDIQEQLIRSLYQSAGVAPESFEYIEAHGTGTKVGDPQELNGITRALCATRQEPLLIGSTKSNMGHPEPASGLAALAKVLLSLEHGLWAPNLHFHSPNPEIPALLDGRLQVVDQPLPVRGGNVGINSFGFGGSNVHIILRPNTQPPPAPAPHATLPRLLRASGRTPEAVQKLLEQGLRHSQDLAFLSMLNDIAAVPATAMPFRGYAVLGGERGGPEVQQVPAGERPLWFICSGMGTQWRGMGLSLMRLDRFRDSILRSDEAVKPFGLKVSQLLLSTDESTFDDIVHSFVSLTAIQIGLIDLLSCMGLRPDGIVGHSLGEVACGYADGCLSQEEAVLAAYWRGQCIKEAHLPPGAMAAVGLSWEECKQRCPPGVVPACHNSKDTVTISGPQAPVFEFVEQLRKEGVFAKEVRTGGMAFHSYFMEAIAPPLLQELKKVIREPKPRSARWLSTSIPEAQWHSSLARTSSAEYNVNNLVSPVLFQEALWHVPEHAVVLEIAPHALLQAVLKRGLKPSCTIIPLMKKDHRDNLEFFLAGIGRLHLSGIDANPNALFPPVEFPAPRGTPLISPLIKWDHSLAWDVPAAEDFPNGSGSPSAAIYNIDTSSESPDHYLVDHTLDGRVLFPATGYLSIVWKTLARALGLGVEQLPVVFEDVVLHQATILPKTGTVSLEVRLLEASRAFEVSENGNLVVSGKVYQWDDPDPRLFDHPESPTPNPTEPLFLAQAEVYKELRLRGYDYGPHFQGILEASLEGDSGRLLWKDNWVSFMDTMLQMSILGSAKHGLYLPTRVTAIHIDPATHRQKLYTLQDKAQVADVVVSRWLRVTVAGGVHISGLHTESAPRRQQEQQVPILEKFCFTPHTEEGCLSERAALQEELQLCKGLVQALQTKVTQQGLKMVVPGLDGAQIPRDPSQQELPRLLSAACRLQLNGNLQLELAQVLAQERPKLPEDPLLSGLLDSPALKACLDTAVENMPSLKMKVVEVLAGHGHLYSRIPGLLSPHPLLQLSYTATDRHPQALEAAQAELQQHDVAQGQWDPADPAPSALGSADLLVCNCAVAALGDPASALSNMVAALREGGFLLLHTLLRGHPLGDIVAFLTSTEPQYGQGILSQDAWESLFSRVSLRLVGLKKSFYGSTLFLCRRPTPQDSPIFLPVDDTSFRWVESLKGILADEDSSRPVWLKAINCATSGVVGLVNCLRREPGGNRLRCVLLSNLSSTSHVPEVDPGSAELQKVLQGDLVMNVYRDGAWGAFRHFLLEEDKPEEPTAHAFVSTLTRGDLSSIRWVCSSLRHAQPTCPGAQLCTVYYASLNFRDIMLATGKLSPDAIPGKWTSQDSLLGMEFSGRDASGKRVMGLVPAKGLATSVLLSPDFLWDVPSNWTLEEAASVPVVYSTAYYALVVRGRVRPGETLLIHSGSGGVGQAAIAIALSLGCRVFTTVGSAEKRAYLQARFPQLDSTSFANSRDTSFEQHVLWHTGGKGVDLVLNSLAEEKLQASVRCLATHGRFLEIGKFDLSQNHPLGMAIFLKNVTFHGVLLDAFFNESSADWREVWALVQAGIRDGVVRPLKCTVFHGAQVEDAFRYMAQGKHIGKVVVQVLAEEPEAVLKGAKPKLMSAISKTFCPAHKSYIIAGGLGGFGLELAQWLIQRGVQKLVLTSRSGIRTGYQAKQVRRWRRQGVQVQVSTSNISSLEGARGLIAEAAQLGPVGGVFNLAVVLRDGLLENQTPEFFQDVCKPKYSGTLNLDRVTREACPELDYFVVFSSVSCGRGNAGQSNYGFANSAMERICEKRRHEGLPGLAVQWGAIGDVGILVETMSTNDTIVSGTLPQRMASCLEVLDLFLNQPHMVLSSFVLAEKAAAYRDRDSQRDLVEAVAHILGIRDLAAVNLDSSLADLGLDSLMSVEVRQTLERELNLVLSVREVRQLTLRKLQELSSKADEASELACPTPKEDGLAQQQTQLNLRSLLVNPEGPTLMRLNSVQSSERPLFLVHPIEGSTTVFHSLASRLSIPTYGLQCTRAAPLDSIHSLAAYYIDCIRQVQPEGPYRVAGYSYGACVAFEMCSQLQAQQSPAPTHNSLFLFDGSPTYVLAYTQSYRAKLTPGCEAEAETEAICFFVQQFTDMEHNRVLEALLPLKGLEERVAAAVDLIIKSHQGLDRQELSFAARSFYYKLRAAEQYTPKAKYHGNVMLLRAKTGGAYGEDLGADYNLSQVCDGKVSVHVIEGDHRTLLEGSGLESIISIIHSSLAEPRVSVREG
# Fatty acid synthase [3] = target: T3, Fatty acid synthase; experiment: inhibition of human FAS-TE enzyme activity – biochemical, kinetic fluorescence intensity, dose response (AID 624326); format: functional;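 also: rate of fluorescence rise from hydrolysis of a fluorogenic O-methyl fluorescein ester substrate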
# Caspase-3 = target: T4, Caspase-3 (Homo sapiens, UniProt P42574); format: functional;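 also: Dose-response selectivity test against caspase-3 for candidate inhibitors of sentrin-specific proteases (SENPs)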
# T4 sequence (P42574 whole entry): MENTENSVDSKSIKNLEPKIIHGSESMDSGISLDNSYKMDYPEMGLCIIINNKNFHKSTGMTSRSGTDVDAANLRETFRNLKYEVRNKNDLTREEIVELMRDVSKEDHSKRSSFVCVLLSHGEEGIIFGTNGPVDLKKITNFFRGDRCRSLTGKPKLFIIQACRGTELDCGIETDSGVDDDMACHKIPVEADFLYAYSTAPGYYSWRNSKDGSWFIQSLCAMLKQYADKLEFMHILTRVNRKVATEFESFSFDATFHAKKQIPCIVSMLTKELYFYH
# [4] = target: T5, Sentrin-specific protease 7 (Homo sapiens, UniProt Q9BQF6); format: functional;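 also: Luminescence-based dose-response confirmation of ultra-high-throughput screening hits, measuring inhibition of SENP7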
# T5 sequence (Q9BQF6 whole entry): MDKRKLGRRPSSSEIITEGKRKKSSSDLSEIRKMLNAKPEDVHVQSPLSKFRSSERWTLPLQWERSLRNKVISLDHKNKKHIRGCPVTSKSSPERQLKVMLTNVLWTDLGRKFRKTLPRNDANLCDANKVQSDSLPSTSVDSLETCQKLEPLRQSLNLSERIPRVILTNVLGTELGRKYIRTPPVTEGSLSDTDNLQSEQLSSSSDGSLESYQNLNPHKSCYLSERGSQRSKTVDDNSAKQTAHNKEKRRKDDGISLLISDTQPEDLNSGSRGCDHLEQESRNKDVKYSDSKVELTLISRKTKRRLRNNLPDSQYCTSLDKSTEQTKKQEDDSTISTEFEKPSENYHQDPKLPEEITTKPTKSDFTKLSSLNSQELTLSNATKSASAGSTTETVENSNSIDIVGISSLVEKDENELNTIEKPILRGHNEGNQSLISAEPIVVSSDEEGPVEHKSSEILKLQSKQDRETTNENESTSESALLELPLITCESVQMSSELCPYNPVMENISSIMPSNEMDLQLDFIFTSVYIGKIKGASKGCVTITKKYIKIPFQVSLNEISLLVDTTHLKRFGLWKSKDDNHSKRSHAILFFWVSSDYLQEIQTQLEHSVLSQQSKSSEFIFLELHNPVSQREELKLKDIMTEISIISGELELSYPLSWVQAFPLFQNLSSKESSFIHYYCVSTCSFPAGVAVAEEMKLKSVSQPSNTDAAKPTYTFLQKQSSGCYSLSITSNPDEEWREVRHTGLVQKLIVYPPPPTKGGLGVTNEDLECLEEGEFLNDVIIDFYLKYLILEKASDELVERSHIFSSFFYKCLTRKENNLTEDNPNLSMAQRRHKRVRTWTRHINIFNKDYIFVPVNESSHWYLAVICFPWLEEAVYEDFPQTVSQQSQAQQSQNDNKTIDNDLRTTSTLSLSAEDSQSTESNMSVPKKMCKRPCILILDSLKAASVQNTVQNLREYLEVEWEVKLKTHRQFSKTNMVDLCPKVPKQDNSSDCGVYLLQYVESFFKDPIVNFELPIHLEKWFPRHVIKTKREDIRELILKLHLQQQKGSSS
# [5] = target: T6, Sentrin-specific protease 6 (Homo sapiens, UniProt Q9GZR1); format: functional;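 also: Luminescence-based dose-response confirmatory assay of SENP6 inhibition, following up an ultra-high-throughput screen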
# T6 sequence (Q9GZR1 whole entry): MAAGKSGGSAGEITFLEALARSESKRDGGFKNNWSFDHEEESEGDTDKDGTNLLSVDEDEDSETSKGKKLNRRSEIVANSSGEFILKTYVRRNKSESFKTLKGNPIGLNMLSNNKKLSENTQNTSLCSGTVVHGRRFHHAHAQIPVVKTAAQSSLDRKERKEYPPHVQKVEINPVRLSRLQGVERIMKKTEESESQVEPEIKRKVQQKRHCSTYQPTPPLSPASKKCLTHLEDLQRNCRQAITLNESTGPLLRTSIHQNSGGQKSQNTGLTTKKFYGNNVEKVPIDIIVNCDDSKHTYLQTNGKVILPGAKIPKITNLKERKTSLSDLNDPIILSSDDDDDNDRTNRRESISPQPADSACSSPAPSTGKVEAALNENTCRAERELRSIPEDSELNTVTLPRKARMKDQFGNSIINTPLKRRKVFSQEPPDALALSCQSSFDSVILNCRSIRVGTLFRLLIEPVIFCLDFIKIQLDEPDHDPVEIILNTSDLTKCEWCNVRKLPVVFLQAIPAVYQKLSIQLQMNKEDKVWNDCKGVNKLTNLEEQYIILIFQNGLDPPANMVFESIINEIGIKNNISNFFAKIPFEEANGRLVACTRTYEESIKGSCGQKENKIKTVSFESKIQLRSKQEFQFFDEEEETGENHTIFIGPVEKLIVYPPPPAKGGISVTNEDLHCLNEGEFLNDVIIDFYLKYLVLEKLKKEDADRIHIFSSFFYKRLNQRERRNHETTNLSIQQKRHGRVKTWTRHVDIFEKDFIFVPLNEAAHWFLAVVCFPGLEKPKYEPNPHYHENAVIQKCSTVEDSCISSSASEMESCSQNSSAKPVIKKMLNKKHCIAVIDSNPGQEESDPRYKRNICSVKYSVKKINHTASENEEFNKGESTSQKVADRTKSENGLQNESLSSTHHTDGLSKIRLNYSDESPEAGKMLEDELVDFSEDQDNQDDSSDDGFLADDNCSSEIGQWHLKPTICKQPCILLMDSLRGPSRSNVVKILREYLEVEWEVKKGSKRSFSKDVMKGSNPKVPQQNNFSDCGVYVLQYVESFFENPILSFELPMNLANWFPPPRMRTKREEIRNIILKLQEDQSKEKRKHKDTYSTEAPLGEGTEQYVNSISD
# [6] = target: T7, Sentrin-specific protease 8 (Homo sapiens, UniProt Q96LD8); format: functional;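 also: luminescence read-out of SENP8 inhibition, dose-response confirmation following an ultra-high-throughput screen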
# T7 sequence (Q96LD8 whole entry): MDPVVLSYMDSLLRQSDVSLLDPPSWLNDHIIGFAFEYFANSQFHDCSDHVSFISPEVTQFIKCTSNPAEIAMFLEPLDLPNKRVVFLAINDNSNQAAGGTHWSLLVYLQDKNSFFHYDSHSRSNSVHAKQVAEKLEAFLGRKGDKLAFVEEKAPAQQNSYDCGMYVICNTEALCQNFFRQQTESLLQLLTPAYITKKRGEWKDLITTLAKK
# [7] = microbe, parasite or virus in culture; format: functional; settings: Mycobacterium tuberculosis
# [8] = target: T8, Polyadenylate-binding protein 1 (Homo sapiens, UniProt P11940); experiment: MLLE binding blockers, Cy5 peptide tracer – biochemical, fluorescence polarization, Cy5-PAM2 peptide, secondary, miRNA deadenylation inhibitor project, dose response (AID 602260); format: functional; settings: read-out: IC50_Mean
# T8 sequence (P11940 whole entry, the tested form may be a part): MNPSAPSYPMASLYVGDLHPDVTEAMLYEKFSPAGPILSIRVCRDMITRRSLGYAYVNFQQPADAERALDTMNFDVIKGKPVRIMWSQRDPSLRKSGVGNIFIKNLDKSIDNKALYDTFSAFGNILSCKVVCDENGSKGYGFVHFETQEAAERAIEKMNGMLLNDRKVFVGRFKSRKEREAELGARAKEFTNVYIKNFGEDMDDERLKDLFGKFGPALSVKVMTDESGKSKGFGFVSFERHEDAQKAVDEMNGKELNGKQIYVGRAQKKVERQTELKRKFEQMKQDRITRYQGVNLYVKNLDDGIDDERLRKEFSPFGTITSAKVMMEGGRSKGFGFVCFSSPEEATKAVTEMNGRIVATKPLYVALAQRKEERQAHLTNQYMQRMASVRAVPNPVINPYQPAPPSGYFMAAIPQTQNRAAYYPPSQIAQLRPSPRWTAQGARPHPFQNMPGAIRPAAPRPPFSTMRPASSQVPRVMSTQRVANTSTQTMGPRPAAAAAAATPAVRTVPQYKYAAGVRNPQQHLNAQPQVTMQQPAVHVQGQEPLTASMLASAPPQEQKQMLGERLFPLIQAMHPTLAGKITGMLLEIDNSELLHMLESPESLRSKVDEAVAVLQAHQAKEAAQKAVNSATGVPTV
# [9] = target: T8, Polyadenylate-binding protein 1; experiment: MLLE domain peptide-binding blockers, IC50 – biochemical, fluorescence polarization, FITC-PAM2 peptide, dose response (AID 602259); format: functional; settings: read-out: IC50_Mean
# [10] = blockers of HIV-1 envelope-mediated cell-cell fusion – cherry-pick, dose response (AID 652057); format: functional, cell-based
Compound,IC50 (Caspase-3),IC50 [4],IC50 [5],IC50 [6],also measured
N#Cc1cc(-c2ccccc2)nc(Oc2ccccc2)n1,,,,,AC50 [1]: 6.79 µM (active); EC50 (Protein RecA): 17.7 µM (active); IC50 (Fatty acid synthase [2]): 12.2 µM (active); IC50 (Fatty acid synthase [3]): 12.9 µM (active)
CN(CC(=O)Nc1ccc(Cl)cc1)C(=O)CNC(=O)c1ccc2ccccc2c1,26.4 µM (active),11.1 µM (active),> 100 µM (inactive),> 100 µM (inactive),
O=c1c2c3c(sc2nc(N2CCNCC2)n1-c1cccc(Cl)c1)CCCCC3,,,,,CC50 [7]: 13.6 µM (active)
O=[N+]([O-])c1ccc(CSc2ccc(S(=O)(=O)N3CCOCC3)cn2)cc1,,,,,IC50 [8]: > 66 µM (inactive); IC50 [9]: > 66 µM (inactive); IC50 (Fatty acid synthase [2]): 13.4 µM (active); IC50 (Fatty acid synthase [3]): 4.09 µM (active)
Cc1nc2ccc(NC(=O)c3cc(Cl)ccn3)cc2s1,3.79 µM (active),3.62 µM (active),12.9 µM (active),86.4 µM (active),
O=C(Nc1ccc(N2CCN(C(=O)c3ccco3)CC2)cc1)C(c1ccccc1)c1ccccc1,,,,,CC50 [7]: > 40 µM (active)
O=C(COC(=O)c1ccc([N+](=O)[O-])s1)NC(=O)NCc1ccccc1,13.7 µM (active),8.47 µM (active),4.59 µM (active),4.28 µM (active),
Fc1ccccc1SCc1nnc(-c2ccccc2Br)o1,17.1 µM (active),6.47 µM (active),12.1 µM (active),14.7 µM (active),
Clc1nc(-c2ccccn2)nc2scc(-c3ccccc3)c12,7.37 µM (active),3.74 µM (active),6.7 µM (active),7.79 µM (active),
Oc1ccc(/C=C/c2ccnc3ccccc23)cc1,34.5 µM (active),9.49 µM (active),> 100 µM (inactive),> 100 µM (inactive),
C[C@H]1CN([C@@H](C)CO)C(=O)c2cccc(NS(=O)(=O)c3ccc(Cl)cc3)c2O[C@@H]1CN(C)Cc1ccc(C(F)(F)F)cc1,,,,,AC50 [10]: 29 µM (active)
COc1ccc2c3c(n(C)c2c1)[C@@H](CO)N(C(=O)Nc1ccc(F)cc1)CC31CCN(Cc2cccc(F)c2)CC1,,,,,AC50 [10]: < 0.26 µM (active)
COc1ccccc1N1CCN(/N=C/c2ccc([N+](=O)[O-])cc2)CC1,2.68 µM (active),2.17 µM (active),3.64 µM (active),> 100 µM (inactive),
